Measured values: patent US11576945B2, “Treatment for ischemic stroke” (CHS Pharma Inc., priority 2018, dated 2023)

Tests used:
PC-12 cells [1] = assay: ATP assay of cell viability, PC-12 cells under hypoxia/reoxygenation; format: cell-based; settings: 5-100 μM carbamathione; hypoxia and reoxygenation; without treatment about 47% of control; FIG. 9
Description: (§1) In another set of experiments, the effect of carbamathione on cell viability and expression of various biomarkers in PCT-12 cells exposed to hypoxia/reoxygenation was evaluated. Referring to FIG. 9, PC-12 cells were exposed to hypoxia and reoxygenation in the presence or in the absence of 5-100 μM carbamathione. […] Referring to FIGS. 13 and 14, GRP 78, CHOP, Caspase-12, and cleaved Caspase-12 expression induced by hypoxia-reoxygenation were each inhibited by carbamathione.

PC-12 cells [2] = assay: Western blot of stress/apoptosis markers in PC-12 cells under hypoxia/reoxygenation; format: cell-based
Description: For the Western blot assays, animals were deeply anesthetized by isoflurane (Phoenix) and decapitated, and then brains were rapidly removed. After sacrifice, the while the brain was on ice, the left hemisphere and the right hemisphere (identical parts) were quickly dissected on dry ice and homogenized in Lysis buffer consisting of 50 mM Tris-HCl, 150 mM NaCl, 2 mM EDTA, pH 8.0, 1% Triton-X-100, 1:100 dilution of mammalian protease inhibitors (Sigma-Aldrich, MO, USA) and protease inhibitor for immunoblotting. Protein concentrations of each sample solution were determined with a Bradford protein assay, and samples were stored at −80° C. until use. Protein samples were separated by 12% sodium dodecyl sulfate-polyacrylamide gel electrophoresis and transferred onto nitrocellulose membranes. Western blot was performed using the following primary antibodies overnight: abcam: GRP 78, HSP70, HSP 27, activating transcription factor 4 (ATF4), and X-box-binding protein 1 (XBP-1) (1:500); Cell Signaling: GAPDH (1:3,000), Bax, BCL2 (1:1,000), AKT, phosphorylated AKT (p-AKT); Santa Cruz: CHOP/GADD153); Imgenex: ATF6 (1:1,500). The membranes were washed three times with Tris-buffered saline containing 0.1% Tween-20 (TBS-T) and incubated with secondary antibodies for 1 hour at room temperature. Secondary antibodies used were goat IRDye 800-conjugated anti-rabbit (1:15,000) and IRDye 680 conjugated anti-mouse (1:15,000) antibodies (LI-COR Biosciences, Lincoln, Nebr., USA). Fluorescent signals were detected with a LI-COR Odyssey Fc system and the images were quantified with the provided either Image Studio 2.0 software or image J software.
as §1

[3] = system: bilateral carotid artery occlusion (BCAO) mice; assay: Brain infarct by TTC staining in BCAO stroke model; format: in vivo; settings: 14 mg/kg subcutaneously 30 min after occlusion
Description: (§2) For the bilateral carotid artery occlusion assay (BCAO) experiments, male Swiss Webster mice (20 weeks of age) were obtained from Charles River laboratory. The mice were allowed access to water only and kept fasting overnight before surgery. Mice were anesthetized with ketamine (100 mg/kg, i.p.) plus xylazine (10 mg/kg, i.p.). For induction of anesthesia, mice were exposed to a gaseous mixture consisting of 30% oxygen, 70% N2O and 0.5% isoflurane using a vaporizer. For maintenance of anesthesia, isoflurane concentration was used to 0.5%. Mice were breathing spontaneously via breathing mask throughout the surgical procedure. A rectal temperature probe was inserted. During surgery, mice were resting on a thermostat-controlled heating pad, ensuring a constant core temperature of 37.0±0.5° C.
(§3) While anesthesia was maintained as described above, each mouse was placed on its back, and its tail and paws were fixed to the heating pad using adhesive tape. A sagittal ventral midline incision (˜1 cm length) was performed. […] The body temperature was monitored and maintained at 37° C.±0.5° C. during the immediate postoperative period until the animals recovered fully from anesthesia. […]
Mice were euthanized 4 days after surgery. […] To assess lesion volume, TTC-stained slices (2, 4, 6, 8, and 10 mm from the frontal pole) were scanned using a scanner and analyzed by Image-J analysis software. […]

[4] = system: bilateral carotid artery occlusion (BCAO) mice; assay: Corner test in BCAO stroke model; format: in vivo; settings: 14 mg/kg s.c. daily; up to 4 days after BCAO; untreated BCAO ~90% to one side; FIG. 21
Description: as §2, with “During surgery, mice were resting on a thermostat-controlled heating pad, ensuring a constant core temperature of 37.0±0.5° C.” left out
While anesthesia was maintained as described above, each mouse was placed on its back, and its tail and paws were fixed to the heating pad using adhesive tape. […] The body temperature was monitored and maintained at 37° C.±0.5° C. during the immediate postoperative period until the animals recovered fully from anesthesia.
The Corner test, which determines an animal's asymmetric direction of turning when encountering a corner, is used as an indicator of brain injury. […] Each mouse took part in ten trials, after which we calculated the percentage of turns to each side, recording only those turns involving full rearing along one of the boards. […]

[5] = system: bilateral carotid artery occlusion (BCAO) mice; assay: Locomotor activity on force-plate actometer in BCAO stroke model; format: in vivo; settings: 14 mg/kg s.c. daily; 4 days after BCAO; FIG. 22
Description: as §2
as §3, with “performed. Both common carotid arteries (CCAs) were isolated, freed of nerve fibers, and occluded using non-traumatic aneurysm clips. Complete interruption of blood flow was confirmed under an operating microscope.” for “performed.”

[6] = system: bilateral carotid artery occlusion (BCAO) mice; assay: Western blot of brain tissue in BCAO stroke model; format: in vivo
Description: as §2
While anesthesia was maintained as described above, each mouse was placed on its back, and its tail and paws were fixed to the heating pad using adhesive tape. A sagittal ventral midline incision (˜1 cm length) was performed. Both common carotid arteries (CCAs) were isolated, freed of nerve fibers, and occluded using non-traumatic aneurysm clips. Complete interruption of blood flow was confirmed under an operating microscope. After 30 min of ischemia, the aneurysm clips were removed from both CCAs. Restoration of blood flow (reoxygenation) was observed directly under the microscope. Sham-operated controls were subjected to the same surgical procedures except that CCAs were not occluded. The body temperature was monitored and maintained at 37° C.±0.5° C. during the immediate postoperative period until the animals recovered fully from anesthesia.
Animals were randomly assigned for sham, control, and experimental groups. Thereafter, in experimental group (carbamathione treated group, N=9), carbamathione (14 mg/kg in 0.3 mL saline 0.9%) was injected subcutaneously 30 min after occlusion and continued daily until the animal was sacrificed. In control groups (vehicle-treated group, N=9), vehicle (0.3 ml saline 0.9%) was injected subcutaneously 30 min after occlusion. Sham-operated group (N=6) received the same surgical procedure without occlusion of common carotid artery. After surgery, animals were allowed to recover from the anesthesia, and given food and water ad libitum. The animals were daily examined for body temperature and weight, and those who had body temperature more than 39° C. after 24 hour were excluded from the experiment.
For the Western blot assays, animals were deeply anesthetized by isoflurane (Phoenix) and decapitated, and then brains were rapidly removed. […] Protein concentrations of each sample solution were determined with a Bradford protein assay, and samples were stored at −80° C. until use. […]

PC-12 cells [7] = settings: 10 mM glutamate for 24 hours
Description: PC-12 cells (purchased from ATCC, Manassas, Va., USA) were cultured in a petri dish for one week prior to use. PC-12 cells were maintained at 37° C./5% CO2 in an incubator, and fed every other day using F12-K medium supplemented with 5% (v/v) fetal bovine serum (FBS), 10% (v/v) heat-inactivated horse serum (HS) and 1% (v/v) penicillin-streptomycin solution. Experiments were performed on undifferentiated cells plated in 96-well plates at a density of approximately 5×10^4 cells/ml for the ATP assay. On first day of use, cells were harvested by first adding 2 mL trypsin and incubated for 15 minutes. 2 mL fresh medium was then used as a wash and cells were spun, and re-suspended. Cell density was determined by cell counting using a hemocytometer and a tissue culture microscope. After cell density was determined, 96-well plates and 6-well plates were plated with 2.5×10^4 cells per well and 5×10^5 cells per well for the adenosine 5′-triphosphate (ATP) assay and Western blot analysis, respectively.
Cell cultures were preincubated with 0.5 μM to 500 μM concentration of carbamathione for one hour. […] For the ATP assay, ATP solution was added to each well, and cells were incubated for 10 min after which time the amount of ATP was quantified through a luciferase reaction. The luminescence intensity was determined using a luminometer with lysates in a standard opaque-walled multi-well plate. […]

[8] = after 4 days, compared to vehicle treated group, FIG. 23
[9] = day 4 post BCAO, compared with vehicle treated group, FIG. 24

CCN(CC)C(=O)SC[C@H](NC(=O)CC[C@H](N)C(=O)O)C(=O)NCC(=O)O [carbamathione, S—(N,N-diethylcarbamoyl)glutathione]
cell viability (ATP levels) (PC-12 cells [1]): dramatically increased the cell viability
CHOP expression induced by hypoxia-reoxygenation (PC-12 cells [2]; FIG. 13): inhibited
GRP 78 expression induced by hypoxia-reoxygenation (PC-12 cells [2]; FIG. 13): inhibited
Caspase-12 expression induced by hypoxia-reoxygenation (PC-12 cells [2]; FIG. 14): inhibited
cleaved Caspase-12 expression induced by hypoxia-reoxygenation (PC-12 cells [2]; FIG. 14): inhibited
ATF4 expression induced by hypoxia-reoxygenation (PC-12 cells [2]; FIG. 15): inhibited
ATF6 expression induced by hypoxia-reoxygenation (PC-12 cells [2]; FIG. 16): inhibited
XBP1 expression induced by hypoxia-reoxygenation (PC-12 cells [2]; FIG. 17): inhibited
Bax expression (upregulation induced by hypoxia/reoxygenation) (PC-12 cells [2]; FIG. 18): decreased the upregulation
Bcl2 expression (downregulation induced by hypoxia/reoxygenation) (PC-12 cells [2]; FIG. 18): increased the downregulation
decrease in the Bcl2:Bax ratio induced by hypoxia/reoxygenation (PC-12 cells [2]; FIG. 18): inhibited
cleaved Caspase-3 expression (upregulation induced by hypoxia/reoxygenation) (PC-12 cells [2]; FIG. 19): decreased the upregulation
AKT expression (PC-12 cells [2]; hypoxia-reoxygenation, FIG. 12): no changes
Hsp 27 expression (PC-12 cells [2]; hypoxia-reoxygenation, compared to hypoxia-reoxygenation alone, FIG. 10): greater over-expression
Hsp 70 expression (PC-12 cells [2]; hypoxia-reoxygenation, compared to hypoxia-reoxygenation alone, FIG. 11): greater over-expression
P-AKT expression (PC-12 cells [2]; hypoxia-reoxygenation, compared to hypoxia-reoxygenation alone, FIG. 12): up-regulated
infarct size (TTC staining) ([3]; daily, 4 days after surgery, 2, 4, 6, 8, 10 mm from frontal pole, FIG. 20): noticeably reduced
volume of the lesion ([3]; sections 2, 4, 6, 8 and 10 mm, 30 min transient BCAO, FIG. 20c): markedly reduced
asymmetric turning in Corner test [4]: not significant differently from that seen in the sham-operated mice
locomotor activity [5]: statistically significantly different than BCAO with vehicle group
CHOP expression in the brains [6, 8]: decreased dramatically
GRP 78 expression in the brains [6, 8]: decreased dramatically
Bax expression in the brains [6, 9]: decreased expression
Bcl2 expression in the brains [6, 9]: significantly increased expression

N[C@@H](CCC(=O)O)C(=O)O [glutamate]
survival of PC-12 cells (ATP assay) (PC-12 cells [7]): about 45%
